Patent US10160771B2, “Hepatitis C virus inhibitors and uses thereof in preparation of drugs” (priority 2014, dated 2018)

Assays:
[1] = test system: HCV genotype 1a (HCV-1a) replicon cells; test: HCV genotype 1a replicon luciferase assay (EC50); assay type: cell-based, hepatitis C virus genotype 1a (H77 clone); conditions: Hepatitis C virus, 72 h, 3 days, luciferase (Bright-Glo)
Procedure, shortened: (§1)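 Compounds were dispensed as 5-fold, 6-point series (highest 100, 10 or 1 nM; 0.5% DMSO) in duplicate. Replicon cells expressing luciferase (H77-derived for 1a, Con1-derived for 1b) were added at 8000 per well and grown 3 days. Luciferase activity was then measured and EC50 fitted.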

[2] = test system: HCV genotype 1b (HCV-1b) replicon cells; test: HCV genotype 1b replicon luciferase assay (EC50); assay type: cell-based, hepatitis C virus genotype 1b (Con1 clone); conditions: Hepatitis C virus, 72 h, 3 days, luciferase (Bright-Glo)
Procedure, shortened: as §1

[3] = Cell Titer-fluor cell activity assay in HCV-1b replicon cells (CC50); assay type: cell-based
Procedure, shortened: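 Con1 genotype 1b replicon cells (E1202G, T1280I, K1846T adaptive mutations), 8000 cells/well, exposed to 6-point 5-fold dilutions from 100, 10 or 1 nM top concentration in 0.5% DMSO, duplicate wells, 3 days at 37 °C. Viability read by Cell Titer-fluor (Ex 405/Em 515 nm) after 30 min; CC50 from nonlinear fit of inhibition %.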

COC(=O)N[C@H](C(=O)N1CCCC1c1ncc(-c2ccc(-c3ccc(-c4cnc([C@@H]5C6CCC(C6)C5C(=O)NCc5cccnc5)[nH]4)cc3)c(F)c2)[nH]1)[C@@H](C)OC (stereo partly drawn) [AA_280_A]
EC50 [1]: 1 to 10 nM | EC50 [2]: 0.001 to 0.1 nM | CC50 at 3 days [3]: > 1 nM

COC(=O)N[C@H](C(=O)N1CCC[C@H]1c1ncc(-c2ccc(-c3ccc(-c4cnc(C5C6CCC(C6)[C@@H]5C(=O)NCc5cccnc5)[nH]4)cc3)cc2)[nH]1)[C@@H](C)OC (stereo partly drawn) [AA_179_B]
EC50 [1]: 1 to 10 nM | EC50 [2]: 0.001 to 0.1 nM | CC50 at 3 days [3]: > 1 nM

COC(=O)N[C@H](C(=O)N1CCC[C@H]1c1cnc(-c2ccc(-c3ccc(-c4ncc(C5C6CCC(C6)[C@@H]5C(=O)N(NC(=O)OC)C(C)C)[nH]4)cc3)cc2OC)[nH]1)C(C)C (stereo partly drawn) [AA_166_B]
EC50 [1]: 10 to 100 nM | EC50 [2]: 0.101 to 1 nM | CC50 at 3 days [3]: > 5 nM

COC(=O)N[C@H](C(=O)N1CCC[C@H]1c1ncc(-c2ccc(-c3ccc(-c4cnc([C@H]5C6CCC(C6)[C@@H]5C(=O)NCc5ccco5)[nH]4)cc3)cc2)[nH]1)C(C)C (stereo partly drawn) [AA_198_A]
EC50 [1]: 1 to 10 nM | EC50 [2]: 0.001 to 0.1 nM | CC50 at 3 days [3]: > 1 nM

COC(=O)N[C@H](C(=O)N1CCC[C@H]1c1ncc(-c2ccc(-c3ccc(-c4cnc([C@@H]5[C@H]6CC[C@H](C6)[C@H]5C(=O)NCc5cccnc5)[nH]4)cc3)cc2)[nH]1)C(C)C [AA_162_ENDOA2]
EC50 [1]: 0.101 to 1 nM | EC50 [2]: 0.001 to 0.1 nM | CC50 at 3 days [3]: > 1 nM

COC(=O)N[C@H](C(=O)N1CCC[C@H]1c1ncc(-c2ccc(-c3ccc(-c4cnc([C@@H]5C6CCC(C6)[C@H]5C(=O)NCc5ccc(OC)nc5)[nH]4)cc3)cc2)[nH]1)C(C)C (stereo partly drawn) [AA_200_B]
EC50 [1]: 1 to 10 nM | EC50 [2]: 0.001 to 0.1 nM | CC50 at 3 days [3]: > 1 nM

COC(=O)N[C@H](C(=O)N1CCC[C@H]1c1ncc(-c2ccc(-c3ccc(-c4cnc(C5C6CCC(C6)[C@@H]5C(=O)NNc5cccnc5)[nH]4)cc3)cc2)[nH]1)[C@@H](C)OC (stereo partly drawn) [AA_258_B]
EC50 [1]: 10 to 100 nM | EC50 [2]: 1 to 10 nM | CC50 at 3 days [3]: > 1 nM

COC(=O)N[C@H](C(=O)N1CCC[C@H]1c1ncc(-c2ccc(-c3ccc(-c4cnc([C@@H]5[C@H]6CC[C@H](C6)[C@H]5C(=O)N[C@@H](C)c5cccnc5)[nH]4)cc3)cc2)[nH]1)C(C)C [AA_204_ENDOA2_A]
EC50 [1]: 0.001 to 0.1 nM | EC50 [2]: 0.001 to 0.1 nM | CC50 at 3 days [3]: > 1 nM

COC(=O)N[C@H](C(=O)N1CCC[C@H]1c1ncc(-c2ccc(-c3ccc(-c4cnc([C@H]5C6CCC(C6)[C@@H]5C(=O)Nc5ccccc5)[nH]4)cc3)cc2)[nH]1)C(C)C (stereo partly drawn) [AA_237_A]
EC50 [1]: 10 to 100 nM | EC50 [2]: 0.101 to 1 nM | CC50 at 3 days [3]: > 1 nM

CC[C@H](C)[C@H](NC(=O)OC)C(=O)N1CCC[C@H]1c1ncc(-c2ccc(-c3ccc(-c4ccc([C@@H]5CCCN5C(=O)[C@@H](NC(=O)OC)C(C)C)[nH]4)cc3)cc2)[nH]1 [AG_107]
EC50 [1]: 1 to 10 nM | EC50 [2]: 0.001 to 0.1 nM | CC50 at 3 days [3]: > 1 nM

COC(=O)N[C@H](C(=O)N1CCC[C@H]1c1ncc(-c2ccc(-c3ccc(-c4cnc(C5C6CCC(C6)[C@H]5C(=O)NCc5ccc(OC)nc5)[nH]4)cc3)cc2)[nH]1)[C@@H](C)OC (stereo partly drawn) [AA_223_A]
EC50 [1]: 10 to 100 nM | EC50 [2]: 0.101 to 1 nM | CC50 at 3 days [3]: > 1 nM

COC(=O)N[C@H](C(=O)N1CCC[C@H]1c1[nH]c(-c2ccc(-c3ccc(-c4cnc([C@@H]5CCCN5C(=O)[C@@H](NC(=O)OC)C5CC5)[nH]4)cc3)cc2)c2c1CCC2)C(C)C [AG_086]
EC50 [1]: 10 to 100 nM | EC50 [2]: 0.001 to 0.1 nM | CC50 at 3 days [3]: > 1 nM

COC(=O)N[C@H](C(=O)N1CCC[C@H]1c1ncc(-c2ccc(-c3ccc(-c4cnc([C@@H]5C6CCC(C6)[C@H]5C(=O)NC(c5cccnc5)C(C)C)[nH]4)cc3)cc2)[nH]1)C(C)C (stereo partly drawn) [AA_233_B]
EC50 [1]: 1 to 10 nM | EC50 [2]: 0.001 to 0.1 nM | CC50 at 3 days [3]: > 1 nM

COC(=O)N[C@H](C(=O)N1CCC[C@H]1c1ncc(-c2ccc(-c3ccc(-c4cnc([C@@H]5[C@H]6CC[C@H](C6)[C@H]5C(=O)N(C)c5ccccn5)[nH]4)cc3)cc2)[nH]1)C(C)C [AA_195_ENDOA2]
EC50 [1]: 0.101 to 1 nM | EC50 [2]: 0.001 to 0.1 nM | CC50 at 3 days [3]: > 1 nM

CCOC(=O)C(NC(=O)[C@H]1C2CCC(C2)[C@@H]1c1ncc(-c2ccc(-c3ccc(-c4cnc([C@@H]5CCCN5C(=O)[C@@H](NC(=O)OC)C(C)C)[nH]4)cc3)cc2)[nH]1)c1cccnc1 (stereo partly drawn) [AA_213]
EC50 [1]: 1 to 10 nM | EC50 [2]: 0.001 to 0.1 nM | CC50 at 3 days [3]: > 1 nM

COC(=O)NC(C(=O)N1CCC[C@H]1c1[nH]c(-c2ccc(-c3ccc(-c4cnc([C@@H]5CCCN5C(=O)[C@@H](NC(=O)OC)[C@@H](C)OC)[nH]4)cc3)cc2)c2c1CCC2)[C@@H](C)OC (stereo partly drawn) [AG_068_A]
EC50 [1]: 1 to 10 nM | EC50 [2]: 0.001 to 0.1 nM | CC50 at 3 days [3]: > 1 nM

COC(=O)N[C@H](C(=O)N1CCC[C@H]1c1ncc(-c2ccc(-c3ccc(-c4cnc([C@H]5C6CCC(C6)[C@@H]5C(=O)NCCc5ccccn5)[nH]4)cc3)cc2)[nH]1)C(C)C (stereo partly drawn) [AA_202]
EC50 [1]: 1 to 10 nM | EC50 [2]: 0.001 to 0.1 nM | CC50 at 3 days [3]: > 1 nM

COC(=O)N[C@H](C(=O)N1CCC[C@H]1c1ncc(-c2ccc(-c3ccc(-c4cnc(C5C6CCC(C6)[C@H]5C(=O)N(C)c5ccccn5)[nH]4)cc3)cc2)[nH]1)[C@@H](C)OC (stereo partly drawn) [AA_247_B]
EC50 [1]: 1 to 10 nM | EC50 [2]: 0.001 to 0.1 nM | CC50 at 3 days [3]: > 1 nM

COC(=O)N[C@H](C(=O)N1CCC[C@H]1c1ncc(-c2ccc(-c3ccc(-c4cnc([C@@H]5C6CCC(C6)[C@H]5C(=O)NCc5cccnc5C5CC5)[nH]4)cc3)cc2)[nH]1)C(C)C (stereo partly drawn) [AA_234_B]
EC50 [1]: 10 to 100 nM | EC50 [2]: 0.001 to 0.1 nM | CC50 at 3 days [3]: > 1 nM

COC(=O)N[C@H](C(=O)N1CCC[C@H]1c1ncc(-c2ccc(-c3ccc(-c4cnc([C@H]5C6CCC(C6)[C@@H]5C(=O)NCC5CNc6ccccc6C5)[nH]4)cc3)cc2)[nH]1)C(C)C (stereo partly drawn) [AA_218]
EC50 [1]: 10 to 100 nM | EC50 [2]: 0.101 to 1 nM | CC50 at 3 days [3]: > 1 nM

COC(=O)N[C@H](C(=O)NC1(c2ncc(-c3ccc(-c4ccc(-c5ccc([C@@H]6CCCN6C(=O)[C@@H](NC(=O)OC)[C@@H](C)OC)[nH]5)cc4)cc3)[nH]2)CC1)[C@@H](C)OC [AG_106]
EC50 [1]: 10 to 100 nM | EC50 [2]: 0.001 to 0.1 nM | CC50 at 3 days [3]: > 1 nM

COC(=O)N[C@H](C(=O)N1CCC[C@H]1c1ncc(-c2ccc(-c3ccc(-c4cnc([C@H]5CCCC[C@@H]5C(=O)N(NC(=O)OC)C(C)C)[nH]4)cc3)cc2)[nH]1)C(C)C [AA_091_B]
EC50 [1]: 10 to 100 nM | EC50 [2]: 0.101 to 1 nM | CC50 at 3 days [3]: > 10 nM

COC(=O)N[C@H](C(=O)N1CCC[C@H]1c1ncc(-c2ccc(-c3ccc(-c4cnc([C@@H]5CCCC[C@H]5C(=O)NCc5cccnc5)[nH]4)cc3)cc2)[nH]1)C(C)C [AA_150_B]
EC50 [1]: 0.101 to 1 nM | EC50 [2]: 0.001 to 0.1 nM | CC50 at 3 days [3]: > 10 nM

COC(=O)N[C@H](C(=O)N1CCC[C@H]1c1ncc(-c2ccc(-c3ccc(-c4cnc(C5C6CCC(C6)[C@@H]5C(=O)NCc5cccnc5O)[nH]4)cc3)cc2)[nH]1)[C@@H](C)OC (stereo partly drawn) [AA_263_B]
EC50 [1]: 1 to 10 nM | EC50 [2]: 0.101 to 1 nM | CC50 at 3 days [3]: > 1 nM

COC(=O)N[C@H](C(=O)N1CCC[C@H]1c1[nH]c(-c2ccc(-c3ccc(-c4cnc([C@@H]5CCCN5C(=O)[C@@H](NC(=O)OC)[C@@H](C)OC)[nH]4)cc3)cc2)c2c1CCC2)C(C)C [AG_066]
EC50 [1]: 1 to 10 nM | EC50 [2]: 0.001 to 0.1 nM | CC50 at 3 days [3]: > 1 nM

COC(=O)N[C@H](C(=O)N1CCC[C@H]1c1ncc(-c2ccc(-c3ccc(-c4cnc([C@@H]5C6CCC(C6)[C@H]5C(=O)NCc5ccc(C(F)(F)F)nc5)[nH]4)cc3)cc2)[nH]1)C(C)C (stereo partly drawn) [AA_232_B]
EC50 [1]: 1 to 10 nM | EC50 [2]: 0.001 to 0.1 nM | CC50 at 3 days [3]: > 1 nM

COC(=O)N[C@H](C(=O)N1CCC[C@H]1c1ncc(-c2ccc(-c3ccc(-c4cnc(C5C6CCC(C6)[C@H]5C(=O)NCc5ccc(C(C)C)nc5)[nH]4)cc3)cc2)[nH]1)[C@@H](C)OC (stereo partly drawn) [AA_265_B]
EC50 [1]: 10 to 100 nM | EC50 [2]: 0.101 to 1 nM | CC50 at 3 days [3]: > 1 nM

COC(=O)N[C@H](C(=O)N1CCC[C@H]1c1ncc(-c2ccc(-c3ccc(-c4cnc(C5C6CCC(C6)[C@@H]5C(=O)N(NC(=O)OC)C(C)C)[nH]4)cc3)c(C)c2)[nH]1)C(C)C (stereo partly drawn) [AA_167]
EC50 [1]: 1 to 10 nM | EC50 [2]: 0.001 to 0.1 nM | CC50 at 3 days [3]: > 1 nM

COC(=O)N[C@H](C(=O)N1CCC[C@H]1c1ncc(-c2ccc(-c3ccc(-c4cnc(C5C6CCC(C6)[C@@H]5C(=O)NCc5cccnc5OC)[nH]4)cc3)cc2)[nH]1)[C@@H](C)OC (stereo partly drawn) [AA_257_A]
EC50 [1]: 1 to 10 nM | EC50 [2]: 0.101 to 1 nM | CC50 at 3 days [3]: > 1 nM
